Source: paper PMC8623168, “Evaluation of Amyloid Polypeptide Aggregation Inhibition and Disaggregation Activity of A-Type Procyanidins” (Pharmaceuticals, 2021)

Legend:
Type in all cases: biochemical
[1] = target: T1, hIAPP (human islet amyloid polypeptide) (Homo sapiens, UniProt P10997); test: thioflavin-T fluorescence, aggregation inhibition; details: read-out: IC50 (Aβ/hIAPP, μM) ^a
T1 construct: gene IAPP; mature peptide of 37 residues (34-70 of the precursor, recalled), bought from KareBay Biochem; aggregating peptide, monomer to fibril
T1 sequence (P10997 34-70): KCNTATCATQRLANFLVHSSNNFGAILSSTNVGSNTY
From the text: thioflavin-T fluorescence, aggregation inhibition on hIAPP (human islet amyloid polypeptide)

[2] = target: T1, hIAPP (human islet amyloid polypeptide); test: thioflavin-T fluorescence, disaggregation of preformed aggregates; details: read-out: EC50 (Aβ/hIAPP, μM) ^a
From the text: thioflavin-T fluorescence, disaggregation of preformed aggregates on hIAPP (human islet amyloid polypeptide)

[3] = target: T2, Aβ42 (amyloid-β; Aβ) (Homo sapiens, UniProt P05067); test: as above; details: read-out: EC50 (Aβ/hIAPP, μM) ^a
T2 construct: gene APP; Abeta42 peptide of 42 residues (672-713 of APP, recalled); cut from amyloid precursor protein; aggregating peptide, monomer to fibril
From the text: thioflavin-T fluorescence, disaggregation of preformed aggregates on Aβ42 (amyloid-β; Aβ)

[4] = target: T2, Aβ42 (amyloid-β; Aβ); test: thioflavin-T fluorescence, aggregation inhibition; details: read-out: IC50 (Aβ/hIAPP, μM) ^a
From the text: thioflavin-T fluorescence, aggregation inhibition on Aβ42 (amyloid-β; Aβ)

T2 sequence (P05067 672-713): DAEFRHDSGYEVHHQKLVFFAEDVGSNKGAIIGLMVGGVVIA

Row | SMILES | IC50 [1] [µM] | EC50 [2] [µM] | EC50 [3] [µM] | IC50 [4] [µM]
1 | O=C(O[C@@H]1Cc2c(O)cc(O)cc2O[C@@H]1c1cc(O)c(O)c(O)c1)c1cc(O)c(O)c(O)c1 [EGCG, reference compound] | 1.1 | 3.7 | 5 | 3.8
2 | Oc1cc(O)c2c(c1)O[C@@]1(c3ccc(O)c(O)c3)Oc3cc(O)c4c(c3[C@@H]2[C@H]1O)O[C@H](c1ccc(O)c(O)c1)[C@H](O)C4 [compound 1, procyanidin A2] | 8.4 | 5.4 | 3.3 | 4.8
3 | Oc1cc(O)c2c(c1)O[C@@]1(c3ccc(O)c(O)c3)Oc3cc4c(c(O)c3[C@@H]2[C@H]1O)C[C@@H](O)[C@@H](c1ccc(O)c(O)c1)O4 [compound 3, proanthocyanidin A6] | 16.4 | 4.9 | 23 | 4.2
4 | Oc1cc(O)c2c(c1)O[C@@]1(c3ccc(O)c(O)c3)Oc3cc4c(c(O)c3[C@@H]2[C@H]1O)C[C@H](O)[C@@H](c1ccc(O)c(O)c1)O4 [compound 4, 4] | 16.8 |  |  | 5.7
5 | Oc1cc(O)c2c(c1)O[C@@]1(c3ccc(O)c(O)c3)Oc3c4c(cc(O)c3[C@@H]2[C@H]1O)O[C@H](c1ccc(O)c(O)c1)[C@H](O)C4 [compound 5, proanthocyanidin A7] | 13.4 | 15.8 | 8.9 | 2.4
6 | Oc1cc(O)c2c(c1)O[C@@]1(c3ccc(O)c(O)c3)Oc3c4c(cc(O)c3[C@@H]2[C@H]1O)O[C@H](c1ccc(O)c(O)c1)[C@@H](O)C4 [compound 6, 6] | 11.6 |  |  | 6.8
7 | COc1cc(OC)c2c(c1)O[C@@]1(c3ccc(OC)c(OC)c3)Oc3cc(OC)c4c(c3[C@@H]2[C@H]1O)O[C@H](c1ccc(OC)c(OC)c1)[C@H](O)C4 [compound 7, 7] | > 100 | > 100 | > 100 | > 100
8 | Oc1cc(O)c2c(c1)O[C@H](c1ccc(O)c(O)c1)[C@H](O)C2 [compound 8, (−)-epicatechin] | 38.9 | 12.2 | 12.9 | 41.7
9 | Oc1cc(O)c2c(c1)O[C@H](c1ccc(O)c(O)c1)[C@@H](O)C2 [compound 9, (+)-catechin] | 40.9 |  |  | 56.8
